Read-outs that look alike come from different tables or passages of the source.
Legend:
[1] = cited from earlier work
[2] = cited from earlier work; remark: listed apart in the source
[3] = Observed Kp,uu,brain and Kp,uu,CSF in monkeys; conditions: for Kp uu at 6 h: cynomolgus monkey, intravenous; for Kp,uu,CSF Monkey: lumbar CSF; for Kp,uu,CSF Monkey / Kp,uu,brain Monkey: *1 data internally obtained
Experimental: Monkey experiments were conducted internally or at the Drug Safety Research Laboratories in Shin Nippon Biomedical Laboratories via consignment to Axcelead Drug Discovery Partners. […] Detailed dosage regimen for each compound is summarized in Supplemental Table 3. […] Each cassette was assigned to a separate group of monkeys. The vehicle was saline or a mixture of dimethylacetamide and 1,3-butanediol (1:1, v/v). At the end of the 6-h infusion or 1 h after intravenous bolus administration, the monkeys were anesthetized, and whole blood, CSF, and whole brain were collected. Blood was collected using the anticoagulant, heparin sodium, and immediately centrifuged; the plasma was transferred to polypropylene tubes. Then, ketamine hydrochloride (50 mg/mL; 0.2 mL/kg; 10 mg/kg) was intramuscularly administered. CSF was collected after lumbar puncture using a spinal needle (22–25G) and a syringe pre-wetted with 10% CHAPS solution to prevent adsorption of compounds to all the equipment during pretreatment. CSF samples were immediately centrifuged, and the supernatant layers were transferred to polypropylene tubes. […] After collecting the cerebellum, hippocampus, and cerebral cortex from the whole brain, these were washed with cold saline, weighed, and homogenized immediately in 4 volumes of ice-cold 100 mmol/L sodium phosphate buffer. All samples were stored at –80°C until analysis by LC-MS/MS. Each sample (50 μL) was mixed with the working solution (the mixture of dimethyl sulfoxide and acetonitrile (2:8, v/v)), and protein was precipitated by the addition of 150 μL acetonitrile containing the internal standards (5 ng/mL alprenolol and diclofenac). After centrifugation at 5,250 rpm and 4°C for 5 min, the supernatant (150 μL) was transferred to a polypropylene 96-well plate (Corning; Corning, NY, USA) and completely evaporated under a gentle stream of N2. The residue was reconstituted in dilution solution (mobile phase A/B (7:3, v/v)), and the supernatant was analyzed by LC-MS/MS.
Each sample (50 μL) was mixed with the working solution (the mixture of dimethyl sulfoxide and acetonitrile (2:8, v/v)), and the protein was precipitated by adding 150 μL acetonitrile containing internal standards (5 ng/mL alprenolol and diclofenac). After centrifugation at 5250 rpm and 4°C for 5 min, the supernatant (150 μL) was transferred to a polypropylene 96-well plate (Corning) and completely evaporated under a gentle stream of N2. The residue was reconstituted in mobile phase A/B (7:3, v/v)), and the supernatant was analyzed by LC-MS/MS. API5000 and QTRAP5500 (AB SCIEX, Framingham, MA, USA) equipped with Ultra-Fast Liquid Chromatography (Shimadzu, Kyoto, Japan) were used for determination of drug concentrations. Reversed-phase chromatography was performed using Shim-pack XR ODS (2.2 μm, 2.0×30 mm). Mobile phase A consisted of 10 mM ammonium formate with 0.2% formic acid, and mobile phase B contained acetonitrile with 0.2% formic acid. […] The mass spectrometer was operated in the positive ionization mode with multiple reaction monitoring (MRM). The MRM parameters (Q1 ion, Q3 ion, DP, EP, CE, and CXP) for monitoring the compounds are shown in Supplemental Table 4. Data acquisition and processing were performed using Analyst 1.6.2 (AB SCIEX, Framingham, MA, USA).
To perform correlation analyses between the observed Kp,uu,brain and Kp,uu,CSF, and the model-based prediction of Kp,uu,brain and Kp,uu,CSF, data from literature information were integrated into the internally obtained data for these assessments (Supplemental Table 2) ([17],[22]–[24],[27]–[33]). When only the total concentrations in plasma, CSF, and brain were available, the total concentration ratio in plasma to CSF or brain (Kp,CSF or Kp,brain, respectively) was estimated, followed by calculation of Kp,uu,CSF or Kp,uu,brain based on Eqs.

[4] = molecular target: MDR1 (Homo sapiens, UniProt P08183); assay: in vitro; conditions: dog, MDCK-MDR1, pH 7.4
MDR1, sequence (P08183 whole entry): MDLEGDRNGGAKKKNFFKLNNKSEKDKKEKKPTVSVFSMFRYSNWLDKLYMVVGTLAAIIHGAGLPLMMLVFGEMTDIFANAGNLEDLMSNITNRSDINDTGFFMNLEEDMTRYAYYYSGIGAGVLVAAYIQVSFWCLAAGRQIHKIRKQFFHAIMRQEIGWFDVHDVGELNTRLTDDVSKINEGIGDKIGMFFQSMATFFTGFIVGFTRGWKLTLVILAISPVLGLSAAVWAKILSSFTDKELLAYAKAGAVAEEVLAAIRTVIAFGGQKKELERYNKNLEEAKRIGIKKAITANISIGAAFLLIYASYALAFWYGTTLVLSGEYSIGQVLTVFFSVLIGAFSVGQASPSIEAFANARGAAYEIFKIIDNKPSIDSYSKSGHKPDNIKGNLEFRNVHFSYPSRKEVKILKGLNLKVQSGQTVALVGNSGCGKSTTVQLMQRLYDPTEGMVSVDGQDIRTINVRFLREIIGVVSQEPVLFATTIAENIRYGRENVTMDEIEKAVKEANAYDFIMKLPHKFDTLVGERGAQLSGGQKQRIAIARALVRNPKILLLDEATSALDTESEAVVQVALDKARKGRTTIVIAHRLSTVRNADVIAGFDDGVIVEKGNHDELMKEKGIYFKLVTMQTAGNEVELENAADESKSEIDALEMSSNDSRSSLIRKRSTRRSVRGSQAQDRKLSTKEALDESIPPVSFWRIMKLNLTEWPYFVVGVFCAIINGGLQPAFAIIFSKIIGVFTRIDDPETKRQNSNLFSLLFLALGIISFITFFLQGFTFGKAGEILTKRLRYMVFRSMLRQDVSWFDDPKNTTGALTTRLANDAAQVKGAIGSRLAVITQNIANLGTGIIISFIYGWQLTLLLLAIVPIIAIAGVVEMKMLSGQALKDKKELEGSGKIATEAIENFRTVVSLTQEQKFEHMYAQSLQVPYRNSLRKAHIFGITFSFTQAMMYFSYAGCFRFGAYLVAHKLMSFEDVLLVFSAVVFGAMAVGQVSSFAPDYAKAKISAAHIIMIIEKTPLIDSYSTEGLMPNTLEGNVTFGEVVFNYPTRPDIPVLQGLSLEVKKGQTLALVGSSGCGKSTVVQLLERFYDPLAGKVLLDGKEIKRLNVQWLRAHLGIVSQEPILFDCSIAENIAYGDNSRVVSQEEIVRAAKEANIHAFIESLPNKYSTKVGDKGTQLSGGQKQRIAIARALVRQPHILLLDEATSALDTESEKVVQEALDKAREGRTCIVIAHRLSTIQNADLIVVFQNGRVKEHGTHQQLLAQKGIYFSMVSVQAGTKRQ
Experimental: (§1) To the compounds available internally, in vitro efflux ratios for MDR1 and BCRP were determined by the following procedure (Supplemental Table 2). Test compound stock solutions in dimethyl sulfoxide (DMSO) were diluted in transport buffer (Hanks’ balanced salt solution (HBSS) with 10 mM HEPES, pH 7.4) to a concentration of 1 μM (DMSO < 1%) and applied to the apical or basolateral side of a cell monolayer derived from Madin-Darby canine kidney (MDCK)-MDR1 and MDCK-BCRP cells. Permeation of the test compounds from apical to basolateral (A to B) direction or B to A direction was measured in duplicate. The plate was incubated for 1 h in a CO2 incubator at 37±1°C with 5% CO2 at saturated humidity without shaking. In addition, the efflux ratio of each compound was also determined. Test and reference compounds were quantified by LC-MS/MS analysis based on the peak area ratio of analyte/internal standard.
(§2) The apparent permeability coefficient Papp (cm/s) was calculated by using Eq. 1: 1 Papp=dCr/dt×Vr/A×C0 where dCr/dt is the cumulative concentration of the compound in the receiver chamber as a function of time (μM/s); Vr is the volume of the solution in the receiver chamber (0.075 mL on the apical side, 0.25 mL on the basolateral side); A is the surface area for transport, i.e., 0.0804 cm^2 for the area of the monolayer; and C0 is the initial concentration (μM) in the donor chamber.
(§3) The efflux ratio was calculated using Eq. 2: 2 Efflux ratio=Papp,BtoA/Papp,AtoB

[5] = molecular target: T1, BCRP (Homo sapiens, UniProt Q9UNQ0); assay: Transcellular transport across MDCK-BCRP cell monolayers (efflux ratio); conditions: dog, pH 7.4
T1 sequence (Q9UNQ0 1-655): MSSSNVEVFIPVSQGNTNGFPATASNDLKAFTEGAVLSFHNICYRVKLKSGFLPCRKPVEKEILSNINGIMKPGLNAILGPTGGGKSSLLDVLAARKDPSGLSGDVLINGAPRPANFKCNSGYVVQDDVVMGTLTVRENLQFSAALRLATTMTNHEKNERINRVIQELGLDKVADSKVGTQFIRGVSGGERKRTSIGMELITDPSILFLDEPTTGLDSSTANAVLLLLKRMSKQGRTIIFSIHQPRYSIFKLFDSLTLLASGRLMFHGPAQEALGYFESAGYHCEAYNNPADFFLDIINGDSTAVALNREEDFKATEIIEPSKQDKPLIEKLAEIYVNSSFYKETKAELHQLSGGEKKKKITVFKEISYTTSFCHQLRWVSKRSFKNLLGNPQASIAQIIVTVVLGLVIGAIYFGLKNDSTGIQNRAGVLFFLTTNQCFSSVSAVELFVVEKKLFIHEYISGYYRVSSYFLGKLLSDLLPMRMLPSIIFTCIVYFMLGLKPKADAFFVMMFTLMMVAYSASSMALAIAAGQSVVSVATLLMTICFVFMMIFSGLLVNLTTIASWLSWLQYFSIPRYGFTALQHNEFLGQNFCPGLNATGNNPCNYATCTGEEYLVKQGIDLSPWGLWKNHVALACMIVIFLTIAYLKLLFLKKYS
Experimental: as §1, §2, §3

SMILES | Kp,uu,CSF Rat ([1]; *4 ref Friden et al. (21)) | Kp,uu,CSF Human ([2]; *4 ref Friden et al. (21)) | Kp,uu,brain Rat ([1]; *4 ref Friden et al. (21)) | also measured
CN(C)CCC=C1c2ccccc2CCc2ccccc21 [Amitriptyline] | 0.17 | 0.18 |  | 
NCC(CC(=O)O)c1ccc(Cl)cc1 (stereo not drawn) [Baclofen] | 0.027 | 0.17 | 0.02 | Kp uu at 6 h ([3]; CSF (lumbar) / plasma): 0.03; Kp uu at 6 h ([3]; brain / plasma): 0.037
CO/N=C(\C(=O)N[C@@H]1C(=O)N2C(C(=O)O)=C(COC(C)=O)CS[C@H]12)c1csc(N)n1 [Cefotaxime] |  | 0.17 |  | Kp,uu,brain Human ([2]; *4 ref Friden et al. (21)): 0.007
CN(C)CCCC1(c2ccc(F)cc2)OCc2cc(C#N)ccc21 (stereo not drawn) [Citalopram] |  |  |  | Kp,uu,brain Rat ([1]; *3 ref Summerfield et al. (25)): 0.623; Kp,uu,CSF Rat ([1]; *7 ref Kodaira et al. (20)): 0.667; Kp,uu,brain Rat ([1]; *7 ref Kodaira et al. (20)): 0.494; Kp,uu,brain Human ([2]; *3 ref Summerfield et al. (25)): 0.347
COc1ccc2c3c1O[C@H]1[C@@H](O)C=C[C@H]4[C@@H](C2)N(C)CC[C@@]341 [Codeine] |  |  |  | Kp,uu,CSF Rat ([1]; in vivo): 0.54; Kp,uu,brain Rat ([1]; in vivo): 0.89; Kp,uu,CSF Human ([2]; in vivo): 0.79
CC(C)Nc1cccnc1N1CCN(C(=O)c2cc3cc(NS(C)(=O)=O)ccc3[nH]2)CC1 [Delavirdine] | 0.051 | 0.23 | 0.043 | 
CCC(C(N)=O)(C(N)=O)c1ccccc1 [Ethyl-phenylmalonamide] | 1.4 |  | 1.250 | 
COc1cc([C@@H]2c3cc4c(cc3[C@@H](O[C@@H]3O[C@@H]5CO[C@@H](C)O[C@H]5[C@H](O)[C@H]3O)[C@H]3COC(=O)[C@H]23)OCO4)cc(OC)c1O [Etoposide] |  |  |  | efflux ratio at 1 h, 1 μM [4]: 6.1; efflux ratio at 1 h, 1 μM [5]: 3.7
CNCCC(Oc1ccc(C(F)(F)F)cc1)c1ccccc1 (stereo not drawn) [Fluoxetine] |  |  |  | Kp,uu,brain Rat ([1]; *3 ref Summerfield et al. (25)): 2.143; Kp,uu,brain Human ([2]; *3 ref Summerfield et al. (25)): 0.53
NCC1(CC(=O)O)CCCCC1 [Gabapentin] | 0.067 | 0.16 | 0.140 | Kp,uu,brain Human ([2]; *4 ref Friden et al. (21)): 0.16
C[C@H]1COc2c(N3CCN(C)CC3)c(F)cc3c(=O)c(C(=O)O)cn1c23 [Levofloxacin] | 0.19 | 0.18 | 0.120 | 
CN1CC[C@]23c4c5ccc(O[C@@H]6O[C@H](C(=O)O)[C@@H](O)[C@H](O)[C@H]6O)c4O[C@H]2[C@@H](O)C=C[C@H]3[C@H]1C5 [M3G] | 0.049 | 0.081 | 0.011 | 
CN1CC[C@]23c4c5ccc(O)c4O[C@H]2[C@@H](O[C@@H]2O[C@H](C(=O)O)[C@@H](O)[C@H](O)[C@H]2O)C=C[C@H]3[C@H]1C5 [M6G] | 0.017 | 0.1 | 0.008 | 
CN1CCN2c3ncccc3Cc3ccccc3C2C1 (stereo not drawn) [Mirtazapine] |  |  |  | Kp,uu,brain Rat ([1]; *3 ref Summerfield et al. (25)): 1.611; Kp,uu,brain Human ([2]; *3 ref Summerfield et al. (25)): 0.79
CO[C@@]1(NC(=O)C(C(=O)O)c2ccc(O)cc2)C(=O)N2C(C(=O)O)=C(CSc3nnnn3C)CO[C@@H]21 (stereo partly drawn) [Moxalactam] | 0.02 | 0.41 | 0.019 | 
Cc1c(O)cccc1C(=O)N[C@@H](CSc1ccccc1)[C@H](O)CN1C[C@H]2CCCC[C@H]2C[C@H]1C(=O)NC(C)(C)C [Nelfinavir] | 0.067 | 0.045 | 0.019 | Kp,uu,CSF Monkey [3]: 0.640; Kp,uu,brain Monkey [3]: 0.008
O=C1CN(/N=C/c2ccc([N+](=O)[O-])o2)C(=O)N1 [Nitrofurantoin] | 0.0099 |  | 0.011 | 
CCn1cc(C(=O)O)c(=O)c2cc(F)c(N3CCNCC3)cc21 [Norfloxacin] | 0.018 | 0.11 | 0.028 | 
C=CCOc1ccccc1OCC(O)CNC(C)C (stereo not drawn) [Oxprenolol] | 0.1 |  | 0.200 | 
CN1CC[C@]23c4c5ccc(O)c4O[C@H]2C(=O)CC[C@@]3(O)[C@H]1C5 [Oxymorphone] | 0.91 |  | 0.790 | 
O=C1NC(=O)C(c2ccccc2)(c2ccccc2)N1 [Phenytoin] |  |  |  | Kp,uu,brain Rat ([1]; *3 ref Summerfield et al. (25)): 0.316; Kp,uu,brain Rat ([1]; *7 ref Kodaira et al. (20)): 0.447; Kp,uu,CSF Rat ([1]; in vivo): 0.396; Kp,uu,brain Human ([2]; *3 ref Summerfield et al. (25)): 0.59
O=C(O)C[C@H](O)C[C@H](O)/C=C/c1c(C2CC2)nc2ccccc2c1-c1ccc(F)cc1 [Pitavastatin] |  |  |  | Kp,uu,CSF Monkey [3]: 0.129; Kp,uu,brain Monkey [3]: 0.242
COc1ccc(C2CNC(=O)C2)cc1OC1CCCC1 (stereo not drawn) [Rolipram] |  |  |  | Kp,uu,brain Human ([2]; *3 ref Summerfield et al. (25)): 1.00
O=C(O)c1ccccc1O [Salicylic acid] | 0.16 | 0.19 | 0.190 | 
CC(C)(C)NC(=O)[C@@H]1C[C@@H]2CCCC[C@@H]2CN1C[C@@H](O)[C@H](Cc1ccccc1)NC(=O)[C@H](CC(N)=O)NC(=O)c1ccc2ccccc2n1 [Saquinavir] |  | 0.096 | 0.055 | 
CSc1ccc2c(c1)N(CCC1CCCCN1C)c1ccccc1S2 (stereo not drawn) [Thioridazine] | 0.21 | 1.4 | 0.45 | Kp,uu,brain Rat ([1]; *3 ref Summerfield et al. (25)): 1.425
COc1cccc(C2(O)CCCCC2CN(C)C)c1 (stereo not drawn) [Tramadol] |  |  |  | Kp,uu,CSF Rat ([1]; in vivo): 0.71; Kp,uu,brain Rat ([1]; in vivo): 1.460; Kp,uu,CSF Human ([2]; in vivo): 1.44
O=c1n(CCCN2CCN(c3cccc(Cl)c3)CC2)nc2ccccn12 [Trazodone] |  |  |  | Kp,uu,brain Rat ([1]; *3 ref Summerfield et al. (25)): 0.957; Kp,uu,brain Human ([2]; *3 ref Summerfield et al. (25)): 0.93

From paper PMC8175309, “Translational CNS Steady-State Drug Disposition Model in Rats, Monkeys, and Humans for Quantitative Prediction of Brain-to-Plasma and Cerebrospinal Fluid-to-Plasma Unbound Concentration Ratios” (The AAPS Journal, 2021)
